Measurements from ChEMBL document CHEMBL2028040, “Malaria Box”.
pEC50, pIC50: −log10 of the molar value.

Experiments:
[1] = test system: Plasmodium falciparum; test: MMV: Inhibition of Plasmodium falciparum 3D7 at 2uM compound concentration.; type: functional
[2] = test system: Plasmodium falciparum; test: MMV: Inhibition of Plasmodium falciparum 3D7 (EC50).; type: functional, organism-based
[3] = test system: Trypanosoma cruzi; test: MMV: Inhibition of Trypanosoma cruzi (Tulahuen C4 LacZ) (Chagas in vitro).; type: functional, organism-based
[4] = test system: Trypanosoma brucei brucei; test: MMV: Inhibition of Trypanosoma brucei brucei (Squib 427) (HAT in vitro).; type: functional, organism-based
[5] = test system: Trypanosoma brucei rhodesiense; test: MMV: Inhibition of Trypanosoma brucei rhodesiense (STIB 900) (HAT in vitro).; type: functional, organism-based
[6] = test system: Leishmania infantum; test: MMV: Inhibition of Leishmania infantum (MHOM/MA/BE/67) in vitro.; type: functional, organism-based
[7] = MMV: Cytotoxicity against human fibroblasts (MRC-5) cells.; settings: MRC-5 cells (human fibroblasts)
[8] = test system: Plasmodium falciparum; test: MMV: Inhibition of Plasmodium falciparum 3D7 at 5uM compound concentration.; type: functional
[9] = test system: Plasmodium falciparum; test: MMV: Inhibition of Plasmodium falciparum K1 (EC50).; type: functional, organism-based

Row | SMILES | inhibition at 2 µM [1] [%] | pEC50 [2] | pIC50 [3] | pIC50 [4] | pIC50 [5] | pIC50 [6] | pIC50 [7] | inhibition at 5 µM [8] [%] | pEC50 [9]
1 | CN(C)CCNc1cc(-c2ccccc2)nc2ccccc12 | 92 | 5.40 | 5.14 | 5.41 | 5.39 | 5.20 | 4.60 | – | –
2 | CCOC(=O)C1=C(C)N=c2sc(=Cc3ccccc3O)c(=O)n2C1c1ccc(OC)c2ccccc12 (stereo not drawn) | – | 5.82 | < 4.49 | 4.77 | 5.13 | 4.79 | < 4.49 | 97 | 5.93
3 | CCOc1ccc(N2C(N)=NC(N)=NC2(C)C)cc1 | 92 | – | < 4.49 | < 4.49 | < 4.49 | < 4.49 | 4.68 | – | –
4 | COc1ccc2nc(C)cc(Nc3ccc(Cl)cc3)c2c1 | 95 | 5.70 | 5.44 | 5.45 | 5.46 | 5.39 | < 4.49 | – | –
5 | CCCCCCc1cc2cc(-c3csc(C=Cc4ccccc4)n3)c(=O)oc2cc1O | – | 6.41 | 4.72 | 4.87 | 5.05 | < 4.49 | < 4.49 | 92 | 6.84
6 | CCOC(=O)C1=C(c2ccccc2)N=c2sc(=Cc3cc(C)n(-c4ccc(F)cc4)c3C)c(=O)n2C1c1cccc(OC)c1OC (stereo not drawn) | – | 6.81 | < 4.49 | < 4.49 | 4.88 | < 4.49 | < 4.49 | 94 | 6.46
7 | COc1cccc(C=Cc2nc(=O)c3ccccc3o2)c1OC | – | 7.62 | < 4.49 | < 4.49 | 4.76 | < 4.49 | < 4.49 | 96 | 7.44
8 | COc1ccc(C=C2SC(=N)N(c3ccccc3OC)C2=O)cc1 | – | 6.77 | 4.94 | 4.86 | 4.86 | 4.79 | 5.35 | 97 | 6.16
9 | CN1CCN(c2c3c(c(C#N)c4nc5ccccc5n24)CCC3)CC1 | 42 | 5.40 | < 4.49 | < 4.49 | < 4.49 | < 4.49 | < 4.49 | – | –
10 | CCOc1ccc2nc(C)cc(Nc3ccc(N(C)C)cc3)c2c1 | 94 | 5.40 | 4.86 | 5.43 | 5.46 | 5.40 | 4.73 | – | –
11 | Cc1cc(Nc2cccc(F)c2)nc(NCc2ccccc2)n1 | 97 | – | 6.04 | 5.12 | 5.39 | 5.59 | < 4.49 | – | –
12 | CCOC(=O)c1c(C)n(-c2ccc(Cl)cc2)c2ccc(OC(=O)C=Cc3ccccc3)cc12 | – | 6.67 | 4.94 | 4.79 | 5.36 | < 4.49 | 4.73 | 97 | 6.18
13 | Cc1cccc(Nc2nc(N)c3ccccc3n2)c1 | 97 | 6.40 | 4.94 | 4.75 | 4.94 | 5.36 | < 4.49 | – | –
14 | OCCNc1nc(Nc2ccc(Cl)c(Cl)c2)nc2ccccc12 | 94 | 6.23 | 5.59 | 5.48 | 5.69 | 5.52 | 5.30 | – | –
15 | COc1ccccc1C(=O)ON=C(N)Cc1cccc2ccccc12 | – | 6.09 | 5.26 | 4.82 | 5.54 | < 4.49 | 4.86 | 97 | 6.15
16 | COc1cc(C(=O)ON=C(N)Cc2cccc3ccccc23)cc(OC)c1OC | – | 6.11 | 5.58 | 5.39 | 5.94 | < 4.49 | 5.25 | 99 | 6.27
17 | Cc1ccc(Nc2nc(N)c3ccccc3n2)cc1Cl | 96 | 5.40 | 5.42 | 5.48 | 5.19 | 5.40 | 4.81 | – | –
18 | Cc1cc(C=C2SC(=Nc3ccccc3)N(C3CCCC3)C2=O)c(C)n1-c1ccc(Cl)cc1 | – | 6.58 | < 4.49 | < 4.49 | < 4.49 | 4.60 | < 4.49 | 97 | 6.18
19 | Cc1ccc2c(C)nc(Nc3nc(C)cc(-c4ccccc4)n3)nc2c1 | 73 | 5.40 | 4.68 | < 4.49 | 4.56 | < 4.49 | < 4.49 | – | –
20 | c1ccc(CNc2nc(Nc3ccccc3)nc3ccccc23)cc1 | 95 | 6.11 | 5.83 | 5.47 | 5.52 | 6.15 | 5.47 | – | –
21 | CN(C)c1ccc(N2C(N)=NC(N)=NC2(C)C)cc1 | 95 | – | < 4.49 | < 4.49 | < 4.49 | < 4.49 | < 4.49 | – | –
22 | CCOc1ccc(Nc2ccnc3cc(Cl)ccc23)cc1 | 94 | 5.40 | < 4.49 | < 4.49 | < 4.49 | < 4.49 | < 4.49 | – | –
23 | CCOc1ccc2nc(C)cc(Nc3ccc(Br)cc3)c2c1 | 96 | 6.32 | 5.37 | 5.44 | 5.48 | 5.39 | 5.50 | – | –
24 | CCCCc1c(C)nc2c(OC)cccc2c1O | 92 | 5.40 | < 4.49 | < 4.49 | < 4.49 | < 4.49 | < 4.49 | – | –
25 | COc1ccc2sc(N(Cc3cccnc3)C(=O)c3ccc(C#N)cc3)nc2c1 | 89 | – | 5.26 | < 4.49 | 4.79 | < 4.49 | < 4.49 | – | –
26 | CCc1ccc(Nc2cc(C)nc3nc(C)nn23)cc1 | 81 | 5.40 | < 4.49 | < 4.49 | < 4.49 | < 4.49 | < 4.49 | – | –
27 | O=C(Nc1cccc(C2=NCCN2)c1)Nc1cccc(C2=NCCN2)c1 [IMIDOCARB] | – | 6.00 | < 4.49 | 4.71 | 6.58 | < 4.49 | < 4.49 | 83 | 5.86
28 | CN(C)c1ccc(C(O)(c2ccc(N(C)C)cc2)c2ccc(N(C)C)cc2)cc1 [METHYLROSANILINE] | – | 6.59 | > 6.90 | > 6.90 | > 6.90 | > 6.90 | 6.45 | 96 | 6.30
